From patent US11015061B2, “Phthalocyanine-based compound and uses of same” (YAMAMOTO CHEMICALS, INC., priority 2017, dated 2021)

Experiments:
Assay type in all cases: physicochemical
[1] = Absorption spectrum of toluene solution (maximum absorption, gram absorption coefficient)
Protocol: A toluene solution of the compound obtained in this way had maximum absorption at 734.0 nm, and the gram absorption coefficient thereof was 1.21×10^5 mL/g·cm. The absorption spectrum chart thereof is illustrated in FIG. 1.

[2] = Solubility in organic solvent (cyclopentanone); conditions: about 10 wt % dispersion, room temperature, 0.2 μm filter; no residue = 10 wt % or more
Protocol: The solubility of the phthalocyanine compound with respect to cyclopentanone was measured by the following method.
Cyclopentanone was added to about 1 g of the phthalocyanine compound such that the total weight thereof became about 10 g, and the obtained solution was irradiated with ultrasonic waves for about 30 minutes and then stirred for 2 hours at room temperature, thereby preparing a dispersion liquid of about 10 wt %.
The dispersion liquid was filtered through a membrane filter (0.2 μm), the substance obtained by filtration was dried for 1 hour in a drier at 60° C., and then the weight of the substance obtained by filtration was measured.
The solubility of the phthalocyanine compound in a solvent is expressed by the following equation. Solubility (wt %)=(W0−W1)/W0
W0 represents the correct weight of the phthalocyanine not yet being treated, and W1 represents the weight of the substance obtained by filtration (dissolved phthalocyanine compound residue) having been dried.

[3] = Visible light transmittance of chloroform solution; conditions: spectrum converted to transmittance 10% at near-infrared maximum absorption wavelength
Protocol: The visible light transmittance of the phthalocyanine-based compound of the present invention and the comparative example compounds was measured by the following measurement method.
Each of the phthalocyanine compounds ([…]) and approximately 90 mL of chloroform were put into a 100 mL volumetric flask, and the solution in the flask was irradiated with ultrasonic waves for 30 minutes and left to stand for 2 hours at room temperature. Then, chloroform was added thereto such that the meniscus of the solution matched up with the calibration mark on the volumetric flask, thereby preparing a 10 mg/L phthalocyanine solution. The prepared solution was put into a 1 cm×1 cm cell made of PYREX (registered trademark), and the absorption spectrum thereof was measured using a spectrophotometer (produced by Hitachi, Ltd.: Spectrophotometer U-3500).
The absorption spectrum measured as above was converted such that the absorbance became 1.0, that is, the transmittance became 10% at the maximum absorption wavelength in a near-infrared range, thereby obtaining a transmission spectrum. […] At 460 nm, the transmittance of the compound of the present invention was approximately the same as the transmittance of Comparative Examples 1 and 2.

maximum absorption [1]: 737.5 nm
gram absorption coefficient ([1]; at maximum absorption): 105000 mL/g/cm
Solubility to cyclopentanone (wt %) [2]: ≤1% wt %
Transmittance (%) 460 nm [3]: 97.8%
Transmittance (%) 610 nm [3]: 87.9%
SMILES: COCCCCCCCCc1ccc(CCCCCCCCOC)c2c1-c1nc-2nc2[n-]c(nc3nc(nc4[n-]c(n1)c1c(CCCCCCCCOC)ccc(CCCCCCCCOC)c41)-c1c(CCCCCCCCOC)ccc(CCCCCCCCOC)c1-3)c1c(CCCCCCCCOC)ccc(CCCCCCCCOC)c21.[O]=[V+2] [Comparative Example Compound (b), reference compound]
